Measured values as given in PMC7906415, “Metabolite profile of Nectandra oppositifolia Nees & Mart. and assessment of antitrypanosomal activity of bioactive compounds through efficiency analyses” (PLoS ONE, 2021).
Read-outs that look alike come from different tables or passages of the source.

What was measured:
[1] = Cytotoxicity against mammalian cells, MTT assay (CC50); assay type: cell-based, murine; settings: mouse
Procedure: Trypanosoma cruzi trypomastigotes (Y strain) were routinely maintained in Rhesus monkey kidney cells (LLC-MK2 –ATCC CCL 7), using RPMI-1640 medium supplemented with 2% FBS at 37°C in a 5% CO2-humidified incubator. The murine conjunctive cells (NCTC clone 929, ATCC) were maintained in RPMI-1640 medium supplemented with 10% FBS at 37°C in a 5% CO2 –humidified incubator. Peritoneal macrophages, used for the amastigote assays, were obtained by washing the peritoneal cavity of BALB/c mice with RPMI-1640 medium supplemented with 10% FBS and were kept at 37°C in a 5% CO2-humidified incubator.
The cytotoxicity assays were performed using NCTC cells-clone 929. The cells were counted, seeded (6 x 10^4 cells/well), and incubated with compounds 1–12 and 7a- 7e (200–1.56 μM—serial dilution) for 48 h at 37°C in a 5% CO2-humidified incubator. The optical density was determined using a FilterMax F5 (Molecular Devices) at 570 nm. The 50% cytotoxic concentration (CC50) values were determined by MTT assay. Selectivity index (SI) values were calculated using the ratio: CC50 against NCTC cells/EC50 against parasites form (amastigotes).
EC50 and CC50 data represent the mean of two independent representative assays tested in duplicate and were calculated using sigmoid dose-response curves with Graph–Pad Prism 6.0 software (San Diego, CA, USA).

[2] = system: Trypanosoma cruzi intracellular amastigotes; assay: Activity against intracellular amastigotes of T. cruzi in infected peritoneal macrophages (EC50); assay type: cell-based, Trypanosoma cruzi (Y strain); settings: for EC50: Trypanosoma cruzi, Peritoneal macrophage, in Mus musculus, read-out: EC50 ± SD; for EC50 / EC50 ± SD: 48 h; for SI (selectivity index): ratio CC50 against NCTC cells/EC50 against amastigote forms
Procedure: Trypanosoma cruzi trypomastigotes (Y strain) were routinely maintained in Rhesus monkey kidney cells (LLC-MK2 –ATCC CCL 7), using RPMI-1640 medium supplemented with 2% FBS at 37°C in a 5% CO2-humidified incubator. The murine conjunctive cells (NCTC clone 929, ATCC) were maintained in RPMI-1640 medium supplemented with 10% FBS at 37°C in a 5% CO2 –humidified incubator. Peritoneal macrophages, used for the amastigote assays, were obtained by washing the peritoneal cavity of BALB/c mice with RPMI-1640 medium supplemented with 10% FBS and were kept at 37°C in a 5% CO2-humidified incubator. To evaluate the activity against intracellular amastigotes, the peritoneal macrophages obtained from BALB/c mice were infected with trypomastigotes forms of T. cruzi. The macrophages were plated on a 16-well chamber slide (NUNC plate, Merck; 1 x 10^5/well) and incubated for 24 h at 37°C in a 5% CO2-humidified incubator. […] After 2 h of incubation at 37°C in a 5% CO2-humidified incubator, the non-internalized parasites were removed by washing with RPMI-1640 medium. Compounds 1–12 and 7a-7e were incubated by serial dilution (100–1.56 μM) with the infected macrophages (48 h at 37°C, 5% CO2) using benznidazole as the standard drug. At the end of the assay, slides were fixed with MeOH and stained with Giemsa prior to counting under a light microscope (EVOS M5000, THERMO). The EC50 values were calculated as previously described. EC50 and CC50 data represent the mean of two independent representative assays tested in duplicate and were calculated using sigmoid dose-response curves with Graph–Pad Prism 6.0 software (San Diego, CA, USA).

T. cruzi amastigotes = settings: cited from earlier work
mammalian cells = system: mammalian cells; parameters: method as in PMID 31132603; settings: cytotoxicity, previous work; cited from earlier work
[3] = NCTC clone 929 cells, 48 h, MTT, 200–1.56 μM, read-out: CC50
[4] = intracellular amastigote forms of T. cruzi in BALB/c peritoneal macrophages, 100–1.56 μM

Compound | CC50 at 48 h [1, 3] [µM] | EC50 [2, 4] [µM] | SI (selectivity index) [2] | other results
CCOC(=O)C1CCC(=O)N1 (stereo in doubt) [Compound 1, ethyl (R)-pyroglutamate] | > 200 | > 100 | – | –
O=C(Cn1ccnc1[N+](=O)[O-])NCc1ccccc1 [Benznidazole, benznidazole, reference compound] | > 200 | 18.7 ± 4.1 | > 10.7 | –
O=Cc1c[nH]c2ccccc12 [Compound 2, indole-3-aldehyde] | – | > 100 | – | CC50 at 48 h [1]: > 200 µM
CC1=CC(=O)CC(C)(C)[C@@]1(O)/C=C/C(C)=C\C(=O)O [Compound 3, (+)-(S)-abscisic acid] | > 200 | – | – | EC50 [2]: > 100 µM
CC1(C)CC(O)CC(C)(O)/C1=C\C(=O)O (stereo not drawn) [Compound 4, 2Z-(2,4-dihydroxy-2,6,6-trimethylcyclohexylidene)acetic acid] | – | 28.2 ± 2.9 | > 7.1 | CC50 at 48 h [1]: > 200 µM
O=C(O)CCCCCCCC(=O)O [Compound 5, azelaic acid] | > 200 | > 100 | – | –
COc1cc(C(=O)O)ccc1O [Compound 6, vanillic acid] | > 200 | > 100 | – | –
CCOC(=O)c1ccc(O)c(O)c1 [Compound 7, ethyl protocatechuate] | > 200 | 18.1 ± 0.3 | – | –
COC(=O)c1ccc(O)c(O)c1 [Compound 7a] | > 200 | > 100 | – | EC50 ± SD [2, 4]: inactive
CCCOC(=O)c1ccc(O)c(O)c1 [Compound 7b] | > 200 | 20.4 ± 4.2 | > 9.8 | –
CCCCOC(=O)c1ccc(O)c(O)c1 [Compound 7c] | > 200 | 19.4 ± 6.3 | > 10.3 | –
CCCCCOC(=O)c1ccc(O)c(O)c1 [Compound 7d] | > 200 | 12.3 ± 3.8 | > 16.3 | –
CCCCCCOC(=O)c1ccc(O)c(O)c1 [Compound 7e] | > 200 | 11.7 ± 2.7 | > 17.1 | –
COc1cc2ccc(=O)oc2cc1O [Compound 8, scopoletin] | > 200 | > 100 | – | –
COc1cc(C(=O)[C@H](CO)c2ccc(O)c(OC)c2)ccc1O [Compound 9, (-)-evofolin B] | > 200 | 27.8 ± 0.2 | > 7.2 | –
COc1cc(/C=C/C(=O)NCCc2ccc(O)cc2)ccc1O [Compound 10, moupinamide] | > 200 | > 100 | – | –
COc1cc(C2OC(c3ccc(O)c(OC)c3)C(C)C2C)ccc1O (stereo not drawn) [Compound 11, verrucosin] | > 200 | 36.8 ± 4.9 | > 5.4 | –
COc1cc([C@H]2O[C@@H](c3ccc(O)c(OC)c3)[C@H](C)[C@@H]2C)ccc1O [Compound 12, nectandrin B] | > 200 | 31 ± 0.3 | > 6.4 | –
C=C1OC(=O)/C(=C\CCCCCCCCCCCCCCC)[C@H]1O [isolinderanolide E] | – | – | – | EC50 (T. cruzi amastigotes; amastigote forms of T. cruzi): 10.1 µM
CCCCCCCCOC(=O)c1ccc(O)c(O)c1 [n-octyl ester of protocatechuic acid] | – | – | – | EC50 (T. cruzi amastigotes; T. cruzi amastigotes): 13.9 µM; CC50 (mammalian cells): 108 µM
CCCCCCCCOC(=O)c1ccc(O)c(OC)c1 [n-octyl ester of vanillic acid] | – | – | – | EC50 (T. cruzi amastigotes; T. cruzi amastigotes): 6.8 µM
O=C(O)c1ccc(O)c(O)c1 [protocatechuic acid, reference compound] | > 200 | – | – | EC50 [2]: > 100 µM; EC50 ± SD [2, 4]: inactive
Isolinderanolide D | – | – | – | EC50 (T. cruzi amastigotes; amastigote forms of T. cruzi): 25.3 µM
